Earlier results, collected in patent US20050288338A1, “Amido compounds and their use as pharmaceuticals” (priority 2004, published 2005).

Biological target: T1, 11βHSD1 in the eye (Homo sapiens, UniProt P28845)
T1 construct: host or cells: eye of healthy human volunteers (in vivo)
Conditions: healthy volunteers, after seven days of carbenoxolone treatment

T1 sequence (P28845 whole entry): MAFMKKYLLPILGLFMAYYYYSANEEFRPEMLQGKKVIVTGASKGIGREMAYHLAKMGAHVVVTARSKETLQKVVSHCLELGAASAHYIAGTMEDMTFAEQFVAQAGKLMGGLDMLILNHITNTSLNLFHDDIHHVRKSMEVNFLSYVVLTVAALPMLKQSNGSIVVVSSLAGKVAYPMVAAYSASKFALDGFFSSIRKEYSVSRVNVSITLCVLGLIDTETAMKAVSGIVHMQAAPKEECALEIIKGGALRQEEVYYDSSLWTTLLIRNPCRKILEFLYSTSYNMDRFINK

IOP was reduced by: 18%
SMILES: CC1(C)[C@@H](OC(=O)CCC(=O)O)CC[C@]2(C)[C@H]3C(=O)C=C4[C@@H]5C[C@@](C)(C(=O)O)CC[C@]5(C)CC[C@@]4(C)[C@]3(C)CC[C@@H]12 [carbenoxolone]
